Results as given in patent US20260130885A1, “ANTIMICROBIAL COMPOSITIONS, PHARMACEUTICAL COMPOSITIONS AND USE THEREOF” (priority 2022, published 2026).
Like-named read-outs stand apart in the source and are kept apart here.

System: MRSA USA300
Experiment: Antibacterial activity assay (MIC by broth microdilution, MBC by subculture)
Type: cell-based, Staphylococcus aureus
Settings: for synergy of the fatty acid with SC5005 (in words): summary of Tables 1 and 2; for bactericidal combination effect of the fatty acid with SC5005 (in words): MBC, Table 2; for effect of the fatty acid on the MIC of SC5005 (in words): summary of Table 1
Method: The antimicrobial activity was based on MIC and MBC; MIC is the minimum inhibitory concentration and MBC is the minimum bactericidal concentration. The MIC of individual test agents against MRSA USA300 strains was determined using the broth microdilution method according to CLSI guidelines. Briefly, overnight bacterial cultures in LB medium were diluted 1:50 in fresh LB medium and incubated at 37° C. until reaching an OD600 of 0.5 to 0.6. Bacterial suspensions were diluted to a final concentration of 5×10^5 cfu/mL in fresh CAMHB and then exposed to each test agent at increasing doses in triplicate in 96-well plates for 24 hours at 37° C. The MIC of each agent was defined as the lowest concentration without visible bacterial growth. […] The lowest broth dilution that had no viable bacteria was considered the MBC.
Then, the combination effect was measured by calculating their corresponding fractional inhibitory concentration index (FICI) with the equation ΣFIC (FICi)=FICA+FICB=(CombA/MICA)+(CombB/MICB), where MICA and MICB are the MICs of drugs A and B alone, respectively, and CombA and CombB are the concentrations of drugs A and B in combination, respectively. […] was defined as an FICI≤0.5, no interaction was defined as an FICI>0.5-4.0, and antagonism was defined as an FICI>4.

[1] = Staphylococcus aureus, amide compound alone, read-out: MBC
[2] = Staphylococcus aureus, amide compound alone, read-out: MIC
[3] = Staphylococcus aureus, fatty acid alone, read-out: MBC fatty acid
[4] = Staphylococcus aureus, fatty acid alone, read-out: MIC fatty acid

Compound	MIC (+8 mg/L DHA)	MIC [2]	MIC [4]	MBC (+8 mg/L DHA)	MBC [1]	MBC [3]	also measured
CCCCC/C=C\C/C=C\C/C=C\C/C=C\CCCC(=O)O [arachidonic acid]	–	–	128 µg/mL	–	–	1020 µg/mL	–
CCCCCCCC/C=C/CCCCCCCC(=O)O [elaidic acid]	–	–	> 1020 µg/mL	–	–	> 1020 µg/mL	synergy of the fatty acid with SC5005 (in words): did not exhibit synergy with SC5005
CCCCCCCC/C=C\CCCCCCCCCCCC(=O)O [erucic acid]	–	–	128 µg/mL	–	–	1020 µg/mL	bactericidal combination effect of the fatty acid with SC5005 (in words): exhibited a synergistic bactericidal effect with SC5005; effect of the fatty acid on the MIC of SC5005 (in words): had no effect on the MIC of SC5005
CCCCCCCC/C=C\CCCCCCCCCC(=O)O [gondoic acid]	–	–	512 µg/mL	–	–	> 1020 µg/mL	bactericidal combination effect of the fatty acid with SC5005 (in words): exhibited a synergistic bactericidal effect with SC5005; effect of the fatty acid on the MIC of SC5005 (in words): had no effect on the MIC of SC5005
CCCCC/C=C\C/C=C\CCCCCCCC(=O)O [linoleic acid]	–	–	1020 µg/mL	–	–	> 1020 µg/mL	–
CCCCCCCCCCCCCC(=O)O [myristic acid]	–	–	512 µg/mL	–	–	> 1020 µg/mL	synergy of the fatty acid with SC5005 (in words): neither of nervonic acid (C24:1n9c) and myristic acid (C14:1n5c), which have 24 and 14 carbon atoms respectively, showed any synergistic activity with SC5005
CCCCCCCC/C=C\CCCCCCCCCCCCCC(=O)O [nervonic acid]	–	–	128 µg/mL	–	–	> 1020 µg/mL	synergy of the fatty acid with SC5005 (in words): neither of nervonic acid (C24:1n9c) and myristic acid (C14:1n5c), which have 24 and 14 carbon atoms respectively, showed any synergistic activity with SC5005
CCCCCCCC/C=C\CCCCCCCC(=O)O [oleic acid]	–	–	512 µg/mL	–	–	> 1020 µg/mL	–
CCCCCC/C=C\CCCCCCCC(=O)O [palmitoleic acid]	–	–	64 µg/mL	–	–	512 µg/mL	synergy of the fatty acid with SC5005 (in words): exhibited synergy
CCCCCCCCCCCCCCCCCC(=O)O [stearic acid]	–	–	512 µg/mL	–	–	> 1020 µg/mL	synergy of the fatty acid with SC5005 (in words): failed to exhibit synergy
CC/C=C\C/C=C\C/C=C\CCCCCCCC(=O)O [α- linolenic acid, α-linolenic acid]	–	–	256 µg/mL	–	–	1020 µg/mL	–

Continued, in another order:

MIC (+8 mg/L DHA)	MIC [2]	MIC [4]	Compound	MBC (+8 mg/L DHA)	MBC [1]	MBC [3]	also measured
0.0156 µg/mL	2 µg/mL	–	O=C(Nc1cc(Cl)cc(Cl)c1)C(Cc1ccccc1)C(=O)Nc1cc(Cl)cc(Cl)c1 [SC5043]	0.0156 µg/mL	4 µg/mL	–	–
0.000975 µg/mL	0.5 µg/mL	–	O=C(Nc1cc(C(F)(F)F)cc(C(F)(F)F)c1)C(Cc1ccccc1)C(=O)Nc1cc(C(F)(F)F)cc(C(F)(F)F)c1 [SC5044]	0.0078 µg/mL	2 µg/mL	–	–
>64 µg/mL	> 64 µg/mL	–	O=C(NC1CCCCC1)C(CCCl)C(=O)NC1CCCCC1 [SC5048]	>64 µg/mL	> 64 µg/mL	–	–
8 µg/mL	> 64 µg/mL	–	CCCNC(=O)C(CCCl)C(=O)Nc1ccc(Cl)c(C(F)(F)F)c1 (stereo not shown) [SC5049]	8 µg/mL	> 64 µg/mL	–	–
8 µg/mL	> 64 µg/mL	–	C=CCNC(=O)C(CCCl)C(=O)Nc1ccc(Cl)c(C(F)(F)F)c1 (stereo not shown) [SC5050]	16 µg/mL	> 64 µg/mL	–	–
1 µg/mL	> 64 µg/mL	–	C=CCNC(=O)C(CCCl)C(=O)NCC=C [SC5052]	2 µg/mL	> 64 µg/mL	–	–
1 µg/mL	> 64 µg/mL	–	O=C(Nc1ccc(Cl)c(C(F)(F)F)c1)C(CCCl)C(=O)NC1CCCCC1 (stereo not shown) [SC5053]	2 µg/mL	> 64 µg/mL	–	–
>64 µg/mL	> 64 µg/mL	–	CN(C(=O)C(CCCl)C(=O)N(C)c1ccc(Cl)c(C(F)(F)F)c1)c1ccc(Cl)c(C(F)(F)F)c1 [SC5101]	>64 µg/mL	> 64 µg/mL	–	–
>64 µg/mL	> 64 µg/mL	–	CN(C(=O)C(CCCl)C(=O)N(C)c1cc(Cl)cc(Cl)c1)c1cc(Cl)cc(Cl)c1 [SC5102]	>64 µg/mL	> 64 µg/mL	–	–
0.0039 µg/mL	0.25 µg/mL	–	O=C(Nc1ccc(Cl)c(C(F)(F)F)c1)C(CCCCl)C(=O)Nc1ccc(Cl)c(C(F)(F)F)c1 [SC5103]	0.0078 µg/mL	2 µg/mL	–	–
0.0078 µg/mL	0.5 µg/mL	–	O=C(Nc1cc(Cl)cc(Cl)c1)C(F)(CCCl)C(=O)Nc1cc(Cl)cc(Cl)c1 [SC5104]	0.0078 µg/mL	4 µg/mL	–	–
0.125 µg/mL	> 64 µg/mL	–	O=C(Nc1ccc(Cl)c(C(F)(F)F)c1)C(F)(CCCl)C(=O)Nc1ccc(Cl)c(C(F)(F)F)c1 [SC5105]	0.125 µg/mL	> 64 µg/mL	–	–
0.25 µg/mL	> 64 µg/mL	–	O=C(CC(=O)Nc1ccc(Cl)c(C(F)(F)F)c1)Nc1ccc(Cl)c(C(F)(F)F)c1 [SC5106]	0.5 µg/mL	> 64 µg/mL	–	–
0.0625 µg/mL	–	–	O=C(Nc1ccc(Cl)c(C(F)(F)F)c1)C1(C(=O)Nc2ccc(Cl)c(C(F)(F)F)c2)CC1 [SC5107]	0.125 µg/mL	–	–	MBC (amide compound alone): >64 µg/mL; MIC (amide compound alone): >64 µg/mL
0.00012 µg/mL	0.25 µg/mL	–	O=C(Nc1ccc(Cl)c(C(F)(F)F)c1)Nc1ccc(Cl)c(C(F)(F)F)c1 [SC5178]	0.00156 µg/mL	2 µg/mL	–	–
